≈ marks a conversion by molar mass, not a printed value.
Experiments:
human fibroblast cells = experiment: "crystal violet" proliferation assay; settings: simvastatin in various concentrations with TCM regimen
human melanoma cells [1] = experiment: Taxol take-up into cells, HPLC (conclusions over the lines); format: cell-based; settings: for effect on take-up of taxanes into human melanoma cells: statin with docetaxel
[2] = cited from earlier work
ovarian cancer = settings: cited from earlier work
breast cancer = settings: cited from earlier work
lung cancer = settings: cited from earlier work
[3] = test system: WM35 human melanoma cells; experiment: Taxol take-up into cells, HPLC; format: cell-based
Procedure: (§1) The tests were carried out using cell lines of human melanoma originating from three stages of development: WM35 of the radial growth phase, WM239A metastatic line and A375P metastasis to lungs, malignant line. For every measuring point, cells were grown in 4 100 mm coming dishes for each separate cell line. […] The analyses were repeated thrice in independent experiments, obtaining similar results. The results were averaged and reported in μM per a million of cells. The cells were counted using a Countess Invitrogen™ counter.
(§2) For determination of the amount of drug absorbed by the melanoma cells, chromatographic method was used. An HPLC system (Shimadzu Corporation Japan) consisting of two LC 10AT vp high-pressure pumps, a DGU-14A degasser, a CTO-10 ASvp oven for the column thermostating, an SIL-10 ADvp automatic sample feeder, and an SPD-M10 Avp diode detector, was used for the measurements. CLASS-VP 7.2.1 software was used.
(§3) The samples were separated on a Phenomenex Gemini −Nx 5μ C18 (4.6×150 mm i.d) column+guard column from Phenomenex (4×3 mm i.d.) with identical packing, at a temperature of 20° C. Eluant with the following composition: solvent A (water+0.1% trifluoroacetic acid [TFA]) and solvent B (acetonitrile 0.1% TFA) was used. The sample was separated in the following gradient system: 20% of solvent B to 30% of solvent B linearly for 15 min, next linearly to 34% for 6 min, linearly to 100% of solvent B for 24 min consecutively, then 10 min isocratically at 100% of solvent B. The column was recalibrated for […] in 20% of solvent B. 20-μl samples were introduced at a flowrate of 1.0 ml/min during 65 min with a UV-Vis detection at 220 nm.
(§4) The results were validated in two steps, by comparing the obtained Rt values to Rt values of standards, and by analysis of spectra of the separated compound and their comparison with spectra of the standards.
(§5) A frozen dry pellet was flushed with 650 μl of a solution (2/1 isopropanol, methanol+10% acetonitrile), then sonicated 3×15 s and frozen for 24 h. After thawing, the sample was shaken lightly for 30 min, 200 μl of physiological saline and 1083 μl of chloroform were added, stirring vigorously for 3×4 min. Separation of the organic phase from the aqueous phase was carried out by centrifugation at 10,000 revolutions/10 min. The collected chloroform phase were subjected to concentration under partial vacuum in a concentrator at 4° C., and to second drying under argon atmosphere. The precipitate was dissolved in 100 μl of methanol and separated by HPLC.
(§6) The tests were carried out using methods described in detail in Example 3.

[4] = test system: human melanoma cells (WM35, WM239A, A375P); experiment: "crystal violet" proliferation assay; format: cell-based; settings: statin 50-12.5 μM with docetaxel regimen at constant 0.5 μM
Procedure: The tests were carried out using cell lines of human melanoma originating from three stages of development: WM35 of the radial growth phase, WM239A metastatic line and A375P metastasis to lungs, malignant line.
The following statins were used in the studies: atorvastatin, fluvastatin, rosuvastatin, and pravastatin. The tests were carried out using cell lines of human melanoma originating from invasive stages of development: WM239A metastatic line and A375P P-metastasis to lungs, malignant line. […] Methodology according to that described in Example 1 was used. Additionally, the toxicity was analysed by investigations of reduced and oxidised glutathione contents. HPLC method was used.

[5] = test system: A375P human melanoma cells; experiment: GSH/GSSG glutathione content and cell count (toxicity), RP-HPLC; format: cell-based; settings: Docetaxel 0.5 μM, statin 20 μM
Procedure: (§7) Toxicities of the applied drugs were tested by a measurement of reduced and oxidised glutathione GSH/GSSG contents in the human melanoma cells. The glutathione contents were analysed by RP-HPLC. A method from prior art [references 1-4] was used.
(§8) The applied method consists in a reaction of GSH and GSSG with N-dinitrofluorobenzene, yielding N,S-dinitro-derivatives in the case of GSH and N,N-dinitro-derivatives in the case of GSSG. The elutions were carried out in a water-acetonitrile system, in accordance to the increasing acetonitrile concentration.
(§9) Determination of the levels of reduced glutathione, oxidised glutathione, and total glutathione were carried out using an RP-HPLC system from Shimadzu (SPD-M10VP photodiode matrix detector, class VP 7.2 software). The separations were carried out at a temperature of 20° C. using a Luna 5u C18 (Z) column (250 mm×4.6 mm, from Phenomenex), with a guard column with the same packing. Grade solvents were used as the eluant in the separations: acetonitrile/0.1% TFA and H2O/0.1% TFA. The separation was obtained in gradient elution, under a non-linear increase in the acetonitrile concentration from 20% to 100% during 90 minutes, at a flow of 1.0 ml/min. Samples with a volume of 20 μl were introduced into the column, filtered earlier using PTFE filters with a pore diameter of 0.2 μm (Supelco). The analysis of the compounds was carried out with UV-VIS detection at 365 nm. The cells were suspended in a 70% PCA/1 mM BPDS/0.9% NaCl solution in a 1:3 ratio, sonicated for 3×5 seconds (Bandelin SonoplusGM70) at a temperature of 4° C. and centrifuged under 1400 g at a temperature of 4° C. for 10 minutes. The prepared supernatant was used for the assays.
(§10) For identification of the tested compounds, proper standard solutions were used: GSH and GSSG.
(§11) All standard solutions were prepared in 10% PCA/1 mM BPDS, in redistilled water.
(§12) To determine the GSH and GSSG levels, calibration curves were used, prepared for standard solutions in the concentration range of 13 to 75 nmol/ml of the corresponding cell homogenate. The incubation mixture contained, respectively: supernatant originating from the cells, N-methyl-L-lysine (internal standard), 10% PCA/1 mM BPDS, 2 M KOH-2.4 M KHCO3 and 1% DNFB.
(§13) In the case of the calibration curve, the incubation mixture was prepared in an analogous way, but various volumes of standard solutions were added, and the final volume was controlled by the amount of the 10% PCA/1 mM BPDS added. After 24 h derivatization at room temperature, in darkness, the samples were acidified by adding 70% PCA and centrifuged for 2 minutes under 5600 g. The obtained supernatant was filtered through a PTFE-Supelco filter, introduced into the column, and 90-minute separation of the analysed compounds was carried out. The chromatograms were worked out identifying the compounds being separated according to their retention times, based on the standards available, and totalising the surface areas of the chromatographic peaks in the ranges of selected retention times.
(§14) Toxicities of the applied drugs were tested by a measurement of GSH/GSSG contents in the human melanoma cells. The glutathione contents were analysed by HPLC. A method drawn from the papers by [Bronowicka, Wróbel, Dominik] was used, described in detail in Example 2.

[6] = test system: WM239A human melanoma cells; experiment: as above; format: cell-based; settings: Docetaxel 0.5 μM, statin 20 μM
Procedure: as §7, §8, §9, §10, §11, §12, §13, §14

[7] = test system: WM35 human melanoma cells; experiment: as above; format: cell-based; settings: Docetaxel 0.5 μM, statin 20 μM
Procedure: as §7, §8, §9, §10, §11, §12, §13, §14

[8] = test system: A375P human melanoma cells; experiment: Taxol take-up into cells, HPLC; format: cell-based
Procedure: as §1, §2, §3, §4, §5, §6

[9] = test system: WM239A human melanoma cells; experiment: Taxol take-up into cells, HPLC; format: cell-based
Procedure: as §1, §2, §3, §4, §5, §6

human melanoma cells [10] = experiment: GSH/GSSG toxicity (conclusions over the lines); format: cell-based; settings: GSH/GSSG contents; statin 20 μM with Docetaxel 0.5 μM
Procedure: as §7, §8
Determination of the levels of reduced glutathione, oxidised glutathione, and total glutathione were carried out using an RP-HPLC system from Shimadzu (SPD-M10VP photodiode matrix detector, class VP 7.2 software). The separations were carried out at a temperature of 20° C. using a Luna 5u C18 (Z) column (250 mm×4.6 mm, from Phenomenex), with a guard column with the same packing. Grade solvents were used as the eluant in the separations: acetonitrile/0.1% TFA and H2O/0.1% TFA. The separation was obtained in gradient elution, under a non-linear increase in the acetonitrile concentration from 20% to 100% during 90 minutes, at a flow of 1.0 ml/min. […]
Toxicities of the applied drugs were tested by a measurement of GSH/GSSG contents in the human melanoma cells. The glutathione contents were analysed by HPLC. […]

[11] = water/n-octanol; cited from earlier work
[12] = cell count 22.5 mln, in the presence of various statins
[13] = relative to Docetaxel (T) = 100
[14] = cell count 34.2 mln, in the presence of various statins
[15] = WM 35, cell count 35.4 mln, in the presence of various statins

CCC(C)(C)C(=O)O[C@H]1C[C@@H](C)C=C2C=C[C@H](C)[C@H](CC[C@@H]3C[C@@H](O)CC(=O)O3)[C@H]21 [simvastatin]
effect on proliferation of normal cells (human fibroblast cells): does not affect the normal cells of human skin such as fibroblasts

CC(C)c1nc(N(C)S(C)(=O)=O)nc(-c2ccc(F)cc2)c1/C=C/[C@@H](O)C[C@@H](O)CC(=O)O [rosuvastatin]
effect on take-up of taxanes into human melanoma cells (human melanoma cells [1]): weaker effect | solubility in water [2]: 88.6 µg/mL (≈ 184 µM)

CC(=O)O[C@H]1C(=O)[C@@]2(C)[C@H]([C@H](OC(=O)c3ccccc3)[C@]3(O)C[C@H](OC(=O)[C@H](O)[C@@H](NC(=O)c4ccccc4)c4ccccc4)C(C)=C1C3(C)C)[C@]1(OC(C)=O)CO[C@@H]1C[C@@H]2O [Paclitaxel, paclitaxel]
efficiency in treatment (ovarian cancer): 30% | efficiency in treatment (breast cancer): 50% | efficiency in treatment (lung cancer): 20%

CC(C)c1c(C(=O)Nc2ccccc2)c(-c2ccccc2)c(-c2ccc(F)cc2)n1CC[C@@H](O)C[C@@H](O)CC(=O)O [atorvastatin]
increase of Taxol content in melanoma cells, on average ([3]; WM35 (radial phase), in relation to the control with Taxol alone): two hundred percent | effect on proliferation of human melanoma cells [4]: permanently inhibit synergistically | take-ups higher by (human melanoma cells [1]; melanoma cells from more advanced progression phases, vs Taxol alone): 30-45% | effect on take-up of taxanes into human melanoma cells (human melanoma cells [1]): selectively increases the taxanes take-up into human melanoma cells

CC(=O)O[C@@]12CO[C@@H]1C[C@H](O)[C@@]1(C)C(=O)[C@H](O)C3=C(C)[C@@H](OC(=O)[C@H](O)[C@@H](NC(=O)OC(C)(C)C)c4ccccc4)C[C@@](O)([C@@H](OC(=O)c4ccccc4)[C@H]21)C3(C)C [T, Docetaxel]
GSH ([5]; 48 h): 0.94 nmol/million of cells | GSH/GSSG ([5]; 48 h): 6.78 | GSSG ([5]; 48 h): 0.14 nmol/million of cells | Total glutathione ([5]; 48 h): 1.22 nmol/million of cells | Cell count after 48 h ([5]; initial count 5.9 mln): 11.1 mln | GSH ([6]; 48 h): 1.07 nmol/million of cells | GSH/GSSG ([6]; 48 h): 6.53 | GSSG ([6]; 48 h): 0.16 nmol/million of cells | Total glutathione ([6]; 48 h): 1.40 nmol/million of cells | Cell count after 48 h ([6]; initial count 6.2 mln): 10.1 mln | GSH ([7]; 48 h): 1.12 nmol/million of cells | GSH/GSSG ([7]; 48 h): 0.59 | GSSG ([7]; 48 h): 1.88 nmol/million of cells | Total glutathione ([7]; 48 h): 4.8 nmol/million of cells | Cell count after 48 h ([7]; initial count 7.1 mln): 10.1 mln | Taxol concentration [8, 12]: 36 µM | Taxol concentration per million of cells [8, 12]: 1.60 μM/million of cells | % content in cells [8, 13]: 100% | Taxol concentration [9, 14]: 74.8 µM | Taxol concentration per million of cells [9, 14]: 2.18 μM/million of cells | % content in cells [9, 13]: 100% | Taxol concentration [3, 15]: 57.08 µM | Taxol concentration per million of cells [3, 15]: 1.61 μM/million of cells | % content in cells ([3]; WM 35, relative to Docetaxel (T) = 100): 100%

CC(C)n1c(/C=C/C(O)CC(O)CC(=O)O)c(-c2ccc(F)cc2)c2ccccc21 (centres unmarked) [fluvastatin]
solubility in water [2]: 0.46 µg/mL (≈ 1.12 µM)

CC[C@H](C)C(=O)O[C@H]1C[C@H](O)C=C2C=C[C@H](C)[C@H](CC[C@@H](O)C[C@@H](O)CC(=O)O)[C@H]21 [pravastatin]
toxicity against human melanoma cells (human melanoma cells [10]): is not toxic and it does not affect the malignant cells | solubility in water [2]: 19000 µg/mL (≈ 44800 µM) | Log P [11]: 0.59

— US10912756B2, “Method for the treatment of human melanoma” (UNIWERSYTET JAGIELLONSKI, priority 2017, dated 2021)
